Test results taken from patent US7935722B2 (Eli Lilly and Company, priority 2005, dated 2011).
Like-named read-outs stand apart in the source and are kept apart here.

How the values were obtained:
[1] = target: T1, human androgen receptor (AR) (Homo sapiens, UniProt P10275); assay: C2C12 AR/ARE reporter assay; assay type: cell-based
T1 construct: expressed in transfected cells; host or cells: mouse myoblast C2C12 cells, transiently co-transfected
T1 sequence (P10275 1-920): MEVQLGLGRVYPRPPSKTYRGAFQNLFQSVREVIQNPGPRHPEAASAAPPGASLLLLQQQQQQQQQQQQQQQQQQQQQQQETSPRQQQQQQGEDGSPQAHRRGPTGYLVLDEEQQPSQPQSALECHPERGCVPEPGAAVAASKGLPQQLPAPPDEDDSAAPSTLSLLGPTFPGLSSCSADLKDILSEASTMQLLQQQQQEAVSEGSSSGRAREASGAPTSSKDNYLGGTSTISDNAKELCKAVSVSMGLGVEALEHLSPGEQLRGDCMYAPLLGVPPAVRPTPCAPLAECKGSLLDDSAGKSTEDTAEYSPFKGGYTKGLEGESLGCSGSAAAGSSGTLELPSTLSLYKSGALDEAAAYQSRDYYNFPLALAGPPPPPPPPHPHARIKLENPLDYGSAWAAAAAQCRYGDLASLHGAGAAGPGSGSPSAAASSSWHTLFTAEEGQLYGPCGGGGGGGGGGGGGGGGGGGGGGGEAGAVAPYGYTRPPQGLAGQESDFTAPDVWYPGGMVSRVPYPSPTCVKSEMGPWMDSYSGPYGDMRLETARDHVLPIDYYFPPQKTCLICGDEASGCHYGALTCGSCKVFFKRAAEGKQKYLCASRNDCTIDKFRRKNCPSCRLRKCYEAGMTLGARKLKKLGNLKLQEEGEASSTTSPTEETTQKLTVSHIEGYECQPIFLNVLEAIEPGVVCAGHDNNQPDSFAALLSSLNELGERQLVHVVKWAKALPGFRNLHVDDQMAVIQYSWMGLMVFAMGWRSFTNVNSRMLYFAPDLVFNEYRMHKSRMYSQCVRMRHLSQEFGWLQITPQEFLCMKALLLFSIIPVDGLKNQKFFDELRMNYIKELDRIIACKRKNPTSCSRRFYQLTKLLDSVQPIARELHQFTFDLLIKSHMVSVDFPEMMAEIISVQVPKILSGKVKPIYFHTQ
Protocol: As an indicator of agonist activity in muscle tissue, the C2C12 AR/ARE reporter assay is performed. Briefly, mouse myoblast C2C12 cells are co-transfected using FuGENE™. […] Cells are transfected in T150 cm^2 flasks in DMEM media with 4% or 10% Fetal Bovine Serum […]. After a 5 hour incubation, transfected cells are trypsinized, plated in 96 well dishes in DMEM media containing 10% charcoal-stripped FBS, incubated for 2 h and then exposed to various concentrations of test compounds ranging from about 0.01 nM to 10 μM. After 48 h of incubations with compounds, cells are lysed and luciferase activity is determined using standard techniques. Data is fit to a 4 parameter-fit logistics to determine EC50 values. The % efficacy is determined versus maximum stimulation obtained with 10 nM methyltrienolone. […]

[2] = target: T2, human AR (androgen receptor) (Homo sapiens, UniProt P10275); assay: Steroid hormone nuclear receptor binding assay, AR binding
T2 construct: expressed in transfected cells; host or cells: 293 cells (293-AR lysate)
T2 sequence (P10275 1-920): T1 sequence (P10275 1-920)
Protocol: Cell lysates from 293 cells overexpressing human GR (glucocorticoid receptor), AR (androgen receptor), MR (mineralocorticoid receptor) or PR (progesterone receptor) are used for competition binding assays to determine Ki values for test compounds. […] Competing compounds are added at various concentrations ranging from about 0.01 nM to 10 μM. Non-specific binding is determined in the presence of 500 nM dexamethasone for GR binding, 500 nM aldosterone for MR binding, or 500 nM methyltrienolone for AR and PR binding. The binding reaction (140 μl) is incubated for overnight at 4° C., then 70 μl of cold charcoal-dextran buffer (containing per 50 ml of assay buffer, 0.75 g of charcoal and 0.25 g of dextran) is added to each reaction. Plates are mixed 8 minutes on an orbital shaker at 4° C. Plates are then centrifuged at 3,000 rpm at 4° C. for 10 minutes. An aliquot of 120 μl of the mix is transferred to another 96-well plate and 175 μl of Wallac Optiphase “Hisafe 3” scintillation fluid is added to each well. Plates are sealed and shaken vigorously on an orbital shaker. After an incubation of 2 hrs, plates are read in a Wallac Microbeta counter. […] The Kd for ^3H-dexamethasone for GR binding, ^3H-methyltrienolone for AR binding, ^3H-aldosterone for MR binding, or ^3H-methyltrienolone for PR binding, is determined by saturation binding. The IC50 values for test compounds are converted to Ki using Cheng-Prusoff equation and the Kd determined by saturation binding assay. […]

[3] = C2C12, read-out: C2C12 % Efficacy
[4] = C2C12 AR/ARE reporter assay, average of n trials, read-out: C2C12 % Efficacy
[5] = C2C12 AR/ARE reporter assay, average of n trials, read-out: C2C12 EC50
[6] = average of n trials, read-out: AR binding Ki

| Compound | EC50 [1] [nM] | Emax [1, 3] [%] | Ki [2] [nM] | Emax [1, 4] [%] | EC50 [1, 5] [nM] | Ki [2, 6] [nM] |
| --- | --- | --- | --- | --- | --- | --- |
| CC(C)C(=O)NC1CCc2c(c3cc(C#N)ccc3n2Cc2cccc(N)c2)C1 (stereo not drawn) [Example 90, N-[9-(3-Amino-benzyl)-6-cyano-2,3,4,9-tetrahydro-1H-carbazol-3-yl]-isobutyramide] | 123 | 67.6 | 30.5 | – | – | – |
| COC(=O)N[C@@H]1CCc2c(c3cc(C#N)ccc3n2Cc2cccc(F)n2)C1 [Example 186, (R)-[6-Cyano-9-(6-fluoro-pyridin-2-ylmethyl)-2,3,4,9-tetrahydro-1H-carbazol-3-yl]-carbamic acid methyl ester] | 17.4 | 103 | 7.1 | – | – | – |
| CC(C)C(=O)NC1CCc2c(c3cc(C#N)ccc3n2Cc2nccs2)C1 (stereo not drawn) [Example 149, N-(6-Cyano-9-thiazol-2-ylmethyl-2,3,4,9-tetrahydro-1H-carbazol-3-yl)-isobutyramide] | – | – | – | 91.4 | 17.6 | 18 |
| O=C(NC1CCc2c(c3cc(Br)ccc3n2Cc2cccc(F)c2)C1)C1CC1 (stereo not drawn) [Example 170, Cyclopropanecarboxylic acid [6-bromo-9-(3-fluoro-benzyl)-2,3,4,9-tetrahydro-1H-carbazol-3-yl]-amide] | 22.4 | 67.2 | 5.9 | – | – | – |
| CC(C)C(=O)NC1CCc2c(c3cc(OC(F)(F)F)ccc3n2Cc2cccc(F)c2)C1 (stereo not drawn) [Example 166] | 6.2 | 81.1 | 5.3 | – | – | – |
| CC(C)C(=O)NC1CCc2c(c3cc(C#N)c(F)cc3n2Cc2cccc(F)c2)C1 (stereo not drawn) [Example 115, N-[6-Cyano-7-fluoro-9-(3-fluoro-benzyl)-2,3,4,9-tetrahydro-1H-carbazol-3-yl]-isobutyramide] | 4.3 | 74.7 | 3.2 | – | – | – |
| CC(C)C(=O)N[C@@H]1CCc2c(c3cc(-c4nnc(N)s4)ccc3n2Cc2cccc(F)c2)C1 [Example 126, (R)-N-[6-(5-Amino[1,3,4]thiadiazol-2-yl)-9-(3-fluorobenzyl)-2,3,4,9-tetrahydro-1H-carbazol-3-yl]isobutyramide] | 31.3 | 87 | 19 | – | – | – |
| CC(C)C(=O)NC1CCc2c(c3cc(C#N)ccc3n2Cc2csc(Cl)n2)C1 (stereo not drawn) [Example 153, N-[9-(2-Chloro-thiazol-4-ylmethyl)-6-cyano-2,3,4,9-tetrahydro-1H-carbazol-3-yl]-isobutyramide] | 19.3 | 93.3 | 7.8 | – | – | – |
| O=C(NC1CCc2c(c3cc(Br)ccc3n2Cc2cccc(F)c2)C1)C(F)(F)F (stereo not drawn) [Example 174] | – | – | – | 65.2 | 88 | 7.1 |
| COC(=O)NC1CCc2c(c3cc(OC(F)(F)F)ccc3n2Cc2cccc(F)n2)C1 (stereo not drawn) [Example 164] | – | – | – | 41.8 | 1230 | 42.3 |
| CC(C)C(=O)NC1CCc2c(c3cc(C#N)ccc3n2Cc2ccccc2NS(C)(=O)=O)C1 (stereo not drawn) [Example 113, N-[6-Cyano-9-(2-methanesulfonylamino-benzyl)-2,3,4,9-tetrahydro-1H-carbazol-3-yl]-isobutyramide] | 35.8 | 97.7 | 21.4 | – | – | – |
| COC(=O)NC1CCc2c(c3cc(OC(F)(F)F)ccc3n2Cc2cccc(F)c2)C1 (stereo not drawn) [Example 168] | – | – | – | 56.7 | 280 | 37 |
| CC(C)C(=O)NC1CCc2c(c3cc(C#N)ccc3n2Cc2cncs2)C1 (stereo not drawn) [Example 159, N-(6-Cyano-9-thiazol-5-ylmethyl-2,3,4,9-tetrahydro-1H-carbazol-3-yl)-isobutyramide] | 35.8 | 80.9 | 34.4 | – | – | – |
| CC(C)C(=O)NC1CCc2c(c3cc(Cl)ccc3n2Cc2cccc(O)c2)C1 (stereo not drawn) [Example 102, N-[^6-Chloro-9-(3-hydroxy-benzyl)-2,3,4,9-tetrahydro-1H-carbazol-3-yl]-isobutyramide] | 300 | 39.6 | 16.8 | – | – | – |
| CC(C)C(=O)NC1CCc2c(c3cc(Cl)ccc3n2Cc2ccccc2N)C1 (stereo not drawn) [Example 106, N-[9-(2-Amino-benzyl)-6-chloro2,3,4,9-tetrahydro-1H-carbazol-3-yl]-isobutyramide] | – | – | – | 82.1 | 2.3 | 8.2 |
| CC(C)C(=O)NC1CCc2c(c3cc(C#N)c(Cl)cc3n2Cc2cccc(F)c2)C1 (stereo not drawn) [Example 118, N-[7-Chloro-6-cyano-9-(3-fluoro-benzyl)-2,3,4,9-tetrahydro-1H-carbazol-3-yl]-isobutyramide] | 31.7 | 124 | 5.9 | – | – | – |
| CC(C)C(=O)N[C@@H]1CCc2c(c3cc(C#N)ccc3n2Cc2ccccc2N)C1 (single isomer, unassigned) [Example 110, R-N-[9-(2-Amino-benzyl)-6-cyano-2,3,4,9-tetrahydro-1H-carbazol-3-yl]-isobutyramide] | 1.8 | 110 | 4.8 | – | – | – |
| CNC(=O)NC1CCc2c(c3cc(C#N)ccc3n2Cc2cccc(F)c2)C1 (stereo not drawn) [Example 179, 1-[6-Cyano-9-(3-fluorobenzyl)-2,3,4,9-tetrahydro-1H-carbazol-3-yl]-3-methyl-urea] | – | – | – | 114 | 24.1 | 14.6 |
| CC(C)C(=O)NC1CCc2c(c3cc(C#N)ccc3n2Cc2cccc(Br)c2)C1 (stereo not drawn) [Example 86] | 36.3 | 93.9 | 2.6 | – | – | – |
| CO/N=C/c1ccc2c(c1)c1c(n2Cc2csc(C)n2)CC[C@@H](NC(=O)C(C)C)C1 [Example 212, (R)-N-[6-(Methoxyimino-methyl)-9-(2-methyl-thiazol-4-ylmethyl)-2,3,4,9-tetrahydro-1H-carbazol-3-yl]-isobutyramide] | 7.8 | 90.4 | 16.7 | – | – | – |
| CCCOc1ccc2c(c1)c1c(n2Cc2cccc(F)c2)CCC(NC(=O)C(C)C)C1 (stereo not drawn) [Example 95, N-[9-(3-Fluoro-benzyl)-6-propoxy-2,3,4,9-tetrahydro-1H-carbazol-3-yl]-isobutyramide] | 18.3 | 79.6 | 12.4 | – | – | – |
| COc1ccc2c3c(n(Cc4ccccc4)c2c1)CCC(NC(=O)C(C)C)C3 (stereo not drawn) [Example 77] | 1200 | 74.9 | 103 | – | – | – |
| Cc1ncc(-c2ccc3c(c2)c2c(n3Cc3cccc(F)c3)CCC(NC(=O)C(C)C)C2)cn1 (stereo not drawn) [Example 136] | 0.7 | 90.4 | 13.8 | – | – | – |
| Cc1cccc(Cn2c3c(c4cc(Cl)ccc42)CC(NC(=O)C(C)C)CC3)c1 (stereo not drawn) [Example 82] | 37.1 | 87.3 | 6.1 | – | – | – |
| Cc1ccc(-c2ccc3c(c2)c2c(n3Cc3cccc(F)c3)CCC(NC(=O)C(C)C)C2)nn1 (stereo not drawn) [Example 139, N-[9-(3-Fluoro-benzyl)-6-(6-methyl-pyridazin-3-yl)-2,3,4,9-tetrahydro-1H-carbazol-3-yl]-isobutyramide] | – | – | – | 96.9 | 19.4 | 34.9 |
